Test results as given in patent US20210308089A1, “METHODS OF TREATING AND/OR PREVENTING VIRAL INFECTIONS AND/OR DISEASES CAUSED BY VIRUSES IN A SUBJECT IN NEED THEREOF” (priority 2020, published 2021).

Key:
[1] = tested on: statin-treated patients with established atherosclerosis or diabetes and elevated triglycerides; test: REDUCE-IT: total (first and recurrent) ischemic events analysis; assay type: in vivo, human
From the text: The following study was a multi-center, placebo-controlled clinical trial the details of which are described above in Example 1, the REDUCE-IT design. […] Randomization was stratified by cardiovascular risk cohort (i.e., secondary or primary prevention), use of ezetimibe, and by geographic region.
The primary outcome for the study was total recurrent events consisting of the composite of cardiovascular death, nonfatal myocardial infarction, nonfatal stroke, coronary revascularization, or hospitalization for unstable angina. Recurrent event analyses were also performed for the key secondary endpoint, a composite of cardiovascular death, nonfatal myocardial infarction, or nonfatal stroke. For each of these composite endpoints, the effects of icosapent ethyl in the secondary and primary prevention strata were examined separately.
Demographic and baseline disease characteristics are presented using frequencies and percentages for categorical variables and medians with interquartile ranges for continuous variables. Between treatment group comparisons were derived using the chi-square test for categorical variables and Wilcoxon rank test for continuous variables. All clinical endpoint events used in the efficacy analyses were adjudicated by an independent Clinical Endpoint Committee (CEC) who were blinded to the treatment assignment. Since the primary efficacy endpoint was the time from randomization to the first occurrence of any component of the composite endpoint, and recurrence of such events within each patient is possible, a pre-specified analysis using a Cox proportional-hazard with the counting-process formulation of Andersen and Gill was performed to model the first and all recurrent cardiovascular events. HRs and corresponding 95% CIs are reported from this model. In addition, as a marginal model and an extension of survival models based on the Cox proportional hazard model, the modified Wei-Lin-Weissfeld (WLW) method for analysis of recurrent events in the presence of deaths was carried out as a supportive analysis. In addition, as pre-specified, a recurrent event analysis using the Andersen-Gill and Wei-Lin-Weissfeld methods was carried out for the individual primary event components other than CV death. Though not pre-specified, additional recurrent event analyses were performed for the key secondary endpoint, which is a composite of CV death, nonfatal MI, or nonfatal stroke, and for the primary endpoint and the key secondary endpoint in the primary and secondary prevention strata to explore further the consistency of clinical benefit of icosapent ethyl. In subgroup analyses of the two cardiovascular risk strata (i.e., primary and secondary prevention), site-level discrepancies in cardiovascular risk group assignment occurring at entry and detected during the study (1.8%) were adjusted to conform with documented medical history data prior to randomization. All efficacy analyses were performed according to the intention-to-treat principle. All tests were based on a 2-sided nominal significance level of 5% with no adjustments for multiple comparisons.

[2] = tested on: symptomatic COVID-19 outpatients with positive SARS-CoV-2 test; test: VASCEPA-COVID-19: FLU-PRO symptom prevalence and scores (and correlation with hs-CRP); assay type: in vivo, human

Compound: CC/C=C\C/C=C\C/C=C\C/C=C\C/C=C\CCCC(=O)OCC [icosapent ethyl, eicosapentaenoic acid ethyl ester]
- Total primary endpoint events: HR vs placebo ([1]; overall trial): 0.68
- Total primary endpoint events prevented ([1]; per 100 patients treated for five years): approximately 16
- Total key secondary endpoint: HR ([1]; primary prevention stratum, vs placebo): 0.71
- Total key secondary endpoint: HR ([1]; secondary prevention stratum, vs placebo): 0.70
- First events reduced by ([1]; vs placebo): 25%
- Second events reduced by ([1]; vs placebo): 28%
- Third or more events reduced by ([1]; vs placebo): 50%
- Total events for the primary composite efficacy outcome: relative risk reduction ([1]; vs placebo): 32%
- Total FLU-PRO symptom prevalence reduced by ([2]; 14+3-day follow-up): 52%
- Reduction in chest/respiratory symptoms (FLU-PRO prevalence) ([2]; baseline to follow-up): 69%
- Change in mean FLU-PRO score, total domain ([2]; baseline to follow-up, patients with non-zero treatment compliance): −0.16
